One block for each compound: values may come before it.
How the values were obtained:
[1] = system: WRN protein in MSI and MSS cells; assay: WRN degradation (immunoblot, ELISA); assay type: cell-based, human
Method: A list of all of the antibodies is provided in Supplementary Table 2. […] The plates were washed in PBS and 200 µl per well of blocking reagent added (PBS, 0.05% Tween-20, 5% skimmed milk), and the plates were incubated for a minimum of 2 h at room temperature. […] The plates were then washed and 50 µl of secondary antibody per well diluted in blocking buffer was added and the plates were incubated overnight at 4 °C. The next day, 50 µl of tertiary antibody was added per well buffer and the plates were incubated for 2 h at room temperature. […] The plates were shaken and luminescence was detected immediately on the Synergy HT microplate reader.

[2] = target: T1, WRN D1D2RH (Asn517–Pro1238) (Homo sapiens, UniProt Q14191); assay: Cy5-ATPγS binding assay using TR-FRET (ATP binding)
T1 construct: 10 nM WRN D1D2RH (protein construct (Asn517–Pro1238)); His tag (N, cleaved yes); ZZ tag (N, cleaved yes); made in house; host or cells: Sf21 insect cells (baculovirus)
Method: A ratio of F665 over F620 was then calculated to determine the FRET efficiency in each well. This assay protocol was used during hit optimization to build the initial structure–activity relationship and was also adapted to 1,536-well plates for screening purposes.

[3] = target: T1, WRN D1D2RH (Asn517–Pro1238); assay: ATPase activity analysis, ADP-Glo; assay type: biochemical
Method: (§1) We used an ADP-Glo assay kit (Promega) to monitor ATP hydrolysis. A 45-oligonucleotide with the following sequence: […], referred to as FLAP26, as described previously[45] was purchased from IDT (Integrated DNA Technologies) and used as a DNA substrate. […] The reaction was started by addition of 2.5 μl of ssDNA substrate at 0.4 nM and incubated for 30 min at room temperature. The reaction was stopped with the addition of 5 μl of the first ADP-Glo reagent and incubated for 1 h to remove the excess amount of ATP. Then, 10 μl of ATP detection reagent was added and incubated for an additional hour before reading. The luminescence output was recorded using the Pherastar reader, with a 5 min delay before reading. Each concentration of compounds was tested in duplicates in the assay plate. The compound potency (IC50 value) was determined using custom software (Novartis Helios software application) with a four-parameter sigmoid Hill-curve model. After normalization of activity values for the wells to percentage inhibition (percentage inhibition = [(high control activity − sample activity)/(high control activity − low control activity)] × 100), IC50 fitting was performed from the duplicate determinations present on each plate.

[4] = MDCK LE permeability; assay type: in vitro ADME, canine; conditions: dog, Fig. 1b
[5] = Rat PK; assay type: in vivo
Method: PK parameters were determined by non-compartmental analysis. Intravenous bolus studies in mouse, rat and dog were performed at 1, 1 and 0.1 mg per kg respectively (Extended Data Table 1).

[6] = target: T2, RecQ1 (Homo sapiens, UniProt P46063); assay: RecQ selectivity ATPase assay; assay type: biochemical
T2 construct: human RecQ1-D1D2 (UniProt: P46063, Asp62–Ser482); His tag (N); made in house; host or cells: E. coli BL21(DE3), by the 'analogous procedure'
Method: (§2) DNA sequence allowing expression of human BLM-D1D2RH (UniProt P54132: Lys640–Gly1298) fused at the amino-terminal end to His tag followed by TEV-cleavage site, was inserted into a pET-derived vector. Protein expression was performed in BL21(DE3) cells after IPTG induction. Cells were collected and resuspended in lysis buffer (50 mM NaH2PO4, 300 mM NaCl, 1 mM TCEP, 20 mM imidazole, pH 8.0) supplemented with 2 mM MgCl2, benzonase and 0.5 mM AEBSF. Cells were lysed with an Emulsiflex C3 homogenizer. After ultracentrifugation, the lysate was loaded onto a HisTrap HP column. Bound protein was eluted with an imidazole gradient in lysis buffer. The amino-terminal tag was cleaved with TEV protease. Cleaved protein was loaded on Resource S ion-exchange column and eluted with a NaCl gradient in IEX buffer (20 mM Tris, 1 mM TCEP, 10% glycerol, 20 mM NaCl, pH 7.4). As a final step, BLM-D1D2RH protein was concentrated and loaded onto the Superdex 75 gel-filtration column pre-equilibrated with SEC buffer (50 mM Tris, 150 mM NaCl, 10% glycerol, pH 7.4). Eluted target protein was concentrated and frozen on dry ice. An analogous procedure was used for the expression and purification of human RecQ1-D1D2 (UniProt: P46063, Asp62–Ser482) and Human RecQ5-D1D2 (UniProt: O94762, Asp11–Trp453) proteins.
as §1
(§3) The same ATPase assay protocol was used with the three other RecQ protein constructs to assess the selectivity over WRN. Time-course experiments were performed to determine the best enzymatic assay conditions for each RecQ protein. The experiments were run as described above with 10 nM RecQ1 protein construct with 10 nM ssDNA substrate, 2 nM BLM protein construct with 0.2 nM ssDNA substrate and 0.5 nM RecQ5 protein construct with 2 nM ssDNA substrate, respectively.

[7] = target: T3, RecQ5 (Homo sapiens, UniProt O94762); assay: RecQ selectivity ATPase assay; assay type: biochemical
T3 construct: Human RecQ5-D1D2 (UniProt: O94762, Asp11–Trp453); His tag (N); made in house; host or cells: E. coli BL21(DE3), by the 'analogous procedure'
Method: as §2, §1, §3

[8] = logD / logP; assay type: physicochemical; conditions: 1-octanol/water, pH 7.4, 1-octanol and water at pH 7.4
[9] = target: T4, WRN D1D2 WT (WRN 517–945) (Homo sapiens, UniProt Q14191); assay: ATPase assay; conditions: read-out: Biochemical IC50 ATPase WRN D1D2 WT
T4 construct: the minimal D1–D2 helicase core (WRN 517–945)
Method: as §1

[10] = target: T5, WRN D1D2 C727A (Homo sapiens, UniProt Q14191, C727A); assay: ATPase assay; conditions: read-out: Biochemical IC50 ATPase WRN D1D2 C727A
T5 construct: the minimal D1–D2 helicase core (WRN 517–945)
Method: as §1

[11] = target: T6, WRN D1D2 C727S (Homo sapiens, UniProt Q14191, C727S); assay: ATPase assay; conditions: read-out: Biochemical IC50 ATPase WRN D1D2 C727S
T6 construct: the minimal D1–D2 helicase core (WRN 517–945)
Method: as §1

[12] = target: T7, WRN full length (Homo sapiens, UniProt Q14191); assay: ATPase assay; conditions: read-out: Biochemical IC50 ATPase WRN full length
T7 construct: ATPase WRN full length: 0.02; made in house
Method: as §1

[13] = target: T8, WRN (D1D2RH) (Homo sapiens, UniProt Q14191); assay: Radioactive binding assay using an SPA (saturation binding); conditions: 10 nM WRN
T8 construct: N-terminal Avi Tag-WRN(Asn517–Pro1238)
Method: A total of 20 μl N-terminal Avi tag-WRN protein (Asn517-Pro1238) in 30 mM Tris pH 7.5, 30 mM NaCl, […], 0.02% BSA, 0.1% Pluronic F127, containing or not a fivefold higher concentration of dsDNA as compared to protein concentration, were incubated with 20 μl [^3H]-probe 6 (Extended Data Fig. 2f) for 1 h at room temperature. Then, 10 μl Streptavidin-coated PVT scintillation proximity assay (SPA) beads (Perkin Elmer, RPNQ0009) were added and the plate was read after 30 min in a TopCount luminescence reader (1 min, delay,1 min per well). The final assay concentrations were 10 nM WRN, 50 nM dsDNA (for the condition with dsDNA), a concentration range of radioligand as shown in the graphs and 50 μg per well of PVT SPA beads. The dsDNA was the same substrate as used in the DNA-unwinding assay (without labels).

[14] = system: SW48 xenografts; assay: SW48 xenograft efficacy, HRO761, irinotecan and combination; assay type: in vivo, mouse; conditions: Irinotecan 60mg/kg
Method: All animal studies were conducted in accordance with ethics and procedures covered by permit BS-2275 and BS-1975 issued by the Kantonales Veterinäramt Basel-Stadt and in strict adherence to guidelines of the Eidgenössisches Tierschutzgesetz and the Eidgenössische Tierschutzverordnung, Switzerland. All animal studies were approved by the internal ethics committee. All animals had access to food and water ad libitum and were identified with transponders. They were housed in a specific-pathogen-free facility in IVC racks under a 12 h–12 h light–dark cycle. To establish cell-line-derived xenograft models, 6–7-week-old female athymic nude (Crl:NU(NCr)-Foxn1^nu) or SCID-BEIGE (CB17.Cg-PrkdcscidLystbg-J/Crl) mice from Charles River were engrafted subcutaneously with 5 million tumour cells in HBSS (H6648, Sigma-Aldrich). For SNU-407, Lovo, IM95, RL95.2, Ishikawa and IGROV-1, the cells were concentrated in 50% Matrigel (354234, Corning). Patient-derived xenografts were induced and expanded by transplantation as previously described. […] For the efficacy experiment, mice were randomized into groups (n = 5–6) for a mean tumour size of 100–150 mm^3. […] Blood samples were collected on day 7 and 91. […] Tumour responses are reported with the measures of tumour volumes from the treatment start. […] Animals were randomized (n = 3) and tumour samples were collected at 0, 1, 4, 8 and 24 h on the first day and then collected 4 h after the last treatment on day 3, 8, 10, 14 (including a 24 h timepoint), 17 and 21. Tumours were excised, weighed, either frozen in liquid nitrogen and cryogenic dry pulverized with the CryoPrep system (model CP-02, Covaris) or processed to FFPE after fixation. […] On day 12, blood samples were collected for PK analysis. On the last day (3 h after the last treatment), tumours were excised, weighed, frozen in liquid nitrogen and cryogenic dry pulverized for PD analysis.

[15] = author rebuttal, compound numbers of an earlier manuscript version, read-out: Cy5-ATPγS binding assay in TR-FRET - IC50

T1 sequence (Q14191 517-1238): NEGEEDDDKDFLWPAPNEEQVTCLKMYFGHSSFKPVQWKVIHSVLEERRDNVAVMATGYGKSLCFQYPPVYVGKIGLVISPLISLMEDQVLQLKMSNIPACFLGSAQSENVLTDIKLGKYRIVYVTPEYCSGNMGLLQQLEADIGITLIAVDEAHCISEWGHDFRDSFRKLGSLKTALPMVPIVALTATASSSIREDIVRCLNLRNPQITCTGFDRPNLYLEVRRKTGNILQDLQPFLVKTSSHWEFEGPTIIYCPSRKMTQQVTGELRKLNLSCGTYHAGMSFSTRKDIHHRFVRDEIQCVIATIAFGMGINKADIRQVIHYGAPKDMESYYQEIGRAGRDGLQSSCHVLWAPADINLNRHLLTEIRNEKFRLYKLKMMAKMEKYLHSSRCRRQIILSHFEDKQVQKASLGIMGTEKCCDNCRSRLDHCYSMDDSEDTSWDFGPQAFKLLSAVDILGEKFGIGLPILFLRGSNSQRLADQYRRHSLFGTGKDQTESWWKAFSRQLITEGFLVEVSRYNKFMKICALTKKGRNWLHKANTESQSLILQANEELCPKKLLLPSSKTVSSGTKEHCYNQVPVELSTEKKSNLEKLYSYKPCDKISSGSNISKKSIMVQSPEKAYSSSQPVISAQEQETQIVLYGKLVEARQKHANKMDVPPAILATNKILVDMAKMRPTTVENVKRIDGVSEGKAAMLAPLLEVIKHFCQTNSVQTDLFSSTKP
T8 sequence (Q14191 517-1238): as above
T3 sequence (O94762 11-453): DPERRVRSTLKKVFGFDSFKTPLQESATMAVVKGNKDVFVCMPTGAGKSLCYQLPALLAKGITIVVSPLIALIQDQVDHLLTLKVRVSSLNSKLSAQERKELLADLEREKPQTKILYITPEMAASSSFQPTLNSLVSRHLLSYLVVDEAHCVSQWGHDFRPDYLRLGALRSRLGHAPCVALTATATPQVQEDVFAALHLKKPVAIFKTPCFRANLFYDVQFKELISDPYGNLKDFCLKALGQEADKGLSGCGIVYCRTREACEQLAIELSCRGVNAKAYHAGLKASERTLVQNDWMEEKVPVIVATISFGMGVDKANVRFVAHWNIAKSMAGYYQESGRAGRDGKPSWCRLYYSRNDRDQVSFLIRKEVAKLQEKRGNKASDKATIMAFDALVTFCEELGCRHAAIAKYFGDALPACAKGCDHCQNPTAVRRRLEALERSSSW
T6 sequence (Q14191 517-945 C727S): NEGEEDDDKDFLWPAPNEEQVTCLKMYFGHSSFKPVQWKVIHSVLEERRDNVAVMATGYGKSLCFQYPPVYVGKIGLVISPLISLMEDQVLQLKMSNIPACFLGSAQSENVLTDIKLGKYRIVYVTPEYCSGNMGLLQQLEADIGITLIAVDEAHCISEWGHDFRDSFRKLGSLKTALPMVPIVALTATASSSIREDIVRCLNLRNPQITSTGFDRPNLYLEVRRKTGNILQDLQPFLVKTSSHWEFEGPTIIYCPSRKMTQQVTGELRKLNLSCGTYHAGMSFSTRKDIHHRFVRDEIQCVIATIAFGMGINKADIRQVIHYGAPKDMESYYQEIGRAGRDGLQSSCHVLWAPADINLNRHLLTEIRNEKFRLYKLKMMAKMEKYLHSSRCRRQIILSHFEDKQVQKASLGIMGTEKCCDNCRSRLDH
T4 sequence (Q14191 517-945): as the sequence (Q14191 517-945 C727S) above, with S211C counted along it
T5 sequence (Q14191 517-945 C727A): as the sequence (Q14191 517-945 C727S) above, with S211A counted along it
T7 sequence (Q14191 whole entry): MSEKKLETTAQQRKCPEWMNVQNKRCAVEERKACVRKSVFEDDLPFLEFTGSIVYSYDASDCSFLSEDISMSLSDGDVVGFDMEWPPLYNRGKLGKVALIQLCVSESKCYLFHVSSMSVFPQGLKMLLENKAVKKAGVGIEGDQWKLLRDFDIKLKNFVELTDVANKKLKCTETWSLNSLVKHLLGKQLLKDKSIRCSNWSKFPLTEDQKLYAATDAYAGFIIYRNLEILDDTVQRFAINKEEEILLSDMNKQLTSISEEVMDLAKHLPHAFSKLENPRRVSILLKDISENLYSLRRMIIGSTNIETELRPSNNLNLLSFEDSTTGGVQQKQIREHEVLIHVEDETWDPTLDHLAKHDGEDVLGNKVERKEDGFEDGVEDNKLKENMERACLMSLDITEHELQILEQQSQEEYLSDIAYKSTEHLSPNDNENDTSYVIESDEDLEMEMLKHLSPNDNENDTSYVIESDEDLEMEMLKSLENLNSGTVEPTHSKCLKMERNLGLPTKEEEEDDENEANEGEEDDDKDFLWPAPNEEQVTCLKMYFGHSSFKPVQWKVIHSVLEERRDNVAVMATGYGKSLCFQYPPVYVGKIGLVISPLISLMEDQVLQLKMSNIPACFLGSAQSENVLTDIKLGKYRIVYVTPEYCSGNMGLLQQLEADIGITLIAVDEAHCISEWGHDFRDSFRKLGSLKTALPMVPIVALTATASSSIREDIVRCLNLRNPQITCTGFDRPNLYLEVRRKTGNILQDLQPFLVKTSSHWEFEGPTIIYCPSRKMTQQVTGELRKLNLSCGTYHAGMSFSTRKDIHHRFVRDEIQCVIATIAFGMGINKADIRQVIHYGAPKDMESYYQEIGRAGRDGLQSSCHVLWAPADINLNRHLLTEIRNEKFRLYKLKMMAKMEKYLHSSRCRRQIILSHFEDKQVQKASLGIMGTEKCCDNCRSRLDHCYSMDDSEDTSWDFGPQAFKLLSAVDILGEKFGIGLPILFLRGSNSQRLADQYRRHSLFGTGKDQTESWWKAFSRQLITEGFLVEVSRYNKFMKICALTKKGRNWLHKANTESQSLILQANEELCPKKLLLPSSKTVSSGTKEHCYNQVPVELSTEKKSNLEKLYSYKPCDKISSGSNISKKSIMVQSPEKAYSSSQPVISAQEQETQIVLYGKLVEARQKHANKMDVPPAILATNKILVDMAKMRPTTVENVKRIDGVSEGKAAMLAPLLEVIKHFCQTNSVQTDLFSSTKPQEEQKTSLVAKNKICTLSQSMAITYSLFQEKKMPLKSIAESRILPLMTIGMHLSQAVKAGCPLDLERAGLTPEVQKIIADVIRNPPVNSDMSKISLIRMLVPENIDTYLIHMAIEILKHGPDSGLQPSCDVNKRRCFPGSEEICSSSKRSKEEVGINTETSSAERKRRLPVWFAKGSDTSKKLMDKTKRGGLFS
T2 sequence (P46063 62-482): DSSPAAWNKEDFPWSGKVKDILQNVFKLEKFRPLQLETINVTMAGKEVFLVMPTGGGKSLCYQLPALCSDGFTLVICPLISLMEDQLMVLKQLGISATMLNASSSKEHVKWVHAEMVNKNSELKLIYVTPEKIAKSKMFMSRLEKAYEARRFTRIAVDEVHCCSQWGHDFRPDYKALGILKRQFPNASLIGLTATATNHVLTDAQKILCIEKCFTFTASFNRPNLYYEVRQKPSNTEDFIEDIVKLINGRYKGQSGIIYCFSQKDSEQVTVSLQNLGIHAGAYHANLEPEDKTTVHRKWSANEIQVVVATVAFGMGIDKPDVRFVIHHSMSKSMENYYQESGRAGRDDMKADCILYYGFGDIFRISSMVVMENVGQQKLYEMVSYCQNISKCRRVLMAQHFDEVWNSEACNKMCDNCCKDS

SMILES: CC[C@@]1(O)C(=O)OCc2c1cc1n(c2=O)Cc2cc3ccccc3nc2-1 [camptothecin, reference compound]
- WRN degradation, dependence on MSI/MSS status [1]: irrespective of their MSI/MSS status

- IC50 ([2]; WRN D1D2RH, Fig. 1b, Extended Data Fig. 2b, read-out: ATP binding IC50): 3000 nM
- IC50 [2, 15]: 3300 nM
- IC50 ([3]; Fig. 1b, ATP concentration not given, read-out: ATPase IC50): 22 µM
SMILES: Cc1cccc(NC(=O)Cn2c(C)cc(=O)n3nc(-c4cccs4)nc23)c1C [compound 1]

- IC50 [2, 15]: 9 nM
- Papp [4]: 0.2 ×10⁻⁶ cm/s
- Rat PK, oral bioavailability (F) [5]: 0 % F
- IC50 [6]: > 100 µM
- IC50 [7]: > 100 µM
- logD [8]: 3.7
SMILES: Cc1c(N2CCN(C(=O)c3c(F)ccc(F)c3O)CC2)c(=O)n2nc(C3=CCOCC3)nc2n1CC(=O)Nc1ccc(C(F)(F)F)cc1 [compound 2]

- IC50 [2, 15]: 13 nM
- IC50 [9]: 250 nM
- IC50 [10]: 1100 nM
- IC50 [11]: 25 µM
- IC50 [12]: 110 nM
- IC50 ([3]; Extended Data Fig. 2b, read-out: Biochemical IC50 ATPase WRN D1D2RH): 0.27 µM
- mode of action with regard to DNA ([3]; KDNA determination, 0.5 nM WRN D1D2RH, 100 µM ATP): non-competitive mode of action
SMILES: CC(=O)N1CCN(c2c(C)n(CC(=O)Nc3ccc(Cl)cc3)c3nc(N4CCN(C(=O)OC(C)(C)C)CC4)nn3c2=O)CC1 [compound 5]

- Kd ([13]; in absence of dsDNA): 10 nM
- Kd ([13]; in presence of 50 nM dsDNA): 14 nM
SMILES: [3H]c1cc(C(F)(F)F)cc([3H])c1NC(=O)Cn1c(C)c(N2CCN(C(C)=O)CC2)c(=O)n2nc(N3CCN(C(C)=O)CC3)nc12 [compound 6]

SMILES: CCc1c2c(nc3ccc(OC(=O)N4CCC(N5CCCCC5)CC4)cc13)-c1cc3c(c(=O)n1C2)COC(=O)[C@]3(O)CC [irinotecan, reference compound]
- Mean TVol (mm3) ([14]; day 0 post 1st dose): 254.88 mm3
- Mean TVol (mm3) ([14]; day 4 post 1st dose): 329.29 mm3
- Mean TVol (mm3) ([14]; day 7 post 1st dose): 550.55 mm3
- Mean TVol (mm3) ([14]; day 11 post 1st dose): 635.45 mm3
- Mean TVol (mm3) ([14]; day 14 post 1st dose): 640.95 mm3
- Mean TVol (mm3) ([14]; day 18 post 1st dose): 669.98 mm3
- Mean TVol (mm3) ([14]; day 21 post 1st dose): 833.51 mm3

— article PMC11078746 (Nature, 2024)
